Data: paper PMC8621857, “Structural Insights into the Azole Resistance of the Candida albicans Darlington Strain Using Saccharomyces cerevisiae Lanosterol 14α-Demethylase as a Surrogate” (Journal of Fungi, 2021)
Where two headings read alike, the source gives them in different places.

How the values were obtained:
[1] = system: S. cerevisiae strain AD3Δ ScErg11 Y140H expressing ScLDM6×His Y140H; assay: Broth microdilution drug susceptibility assay (MIC80), strain AD3Δ ScErg11 Y140H; assay type: cell-based, Saccharomyces cerevisiae; settings: for MIC80: Saccharomyces cerevisiae, 48 h, 30 °C, pH 6.8, mean (± SEM), n = 3; for MIC80 / MIC80/Relative Amount of ScLDM6×His / fold-resistance based on the relative amount of recombinant enzyme compared with strain AD3Δ: strain Y140H; for MIC80/Relative Amount of ScLDM6×His / fold-resistance based on the relative amount of recombinant enzyme compared with strain AD3Δ: relative expression 0.74
Method: (§1) The native ScERG11 gene in yeast cells containing mutant ScERG11-6×His constructs in the PDR5 locus was disrupted by homologous recombination with a cassette encoding the His1 selection marker and sequences homologous with the regions bordering the endogenous ScERG11 ORF to create strains AD3Δ ScErg11 Y140H, AD3Δ ScErg11 I471T and AD3Δ ScErg11Y140H I471T [43]. Transformants were selected on SD-His agar plates incubated at 30 °C for 48–72 h. Genomic DNA was extracted, and DNA sequencing as above was used to confirm deletion of the native ERG11. Strain AD3Δ ScErg11 (denoted as AD3Δ), which overexpresses wild-type ScLDM6×His from the PDR5 locus and has the native ScERG11 gene disrupted, was used as a control strain [43].
(§2) Azole susceptibility was measured as the mean drug concentration required to inhibit 80% of yeast growth (MIC80) compared to a non-drug control, using a standard broth microdilution assay. Serial dilutions of short- (FLC and VCZ), medium- (VT-1161), and long-tailed (ITC and PCZ) azole drugs, and the control drugs micafungin (MCF) and amphotericin B (AMB), were prepared in a 96-well microtiter plate in complete synthetic media lacking uracil, buffered to pH 6.8 [34]. Control and test cells were seeded at an optical density of 600 nm (OD600) of 0.005 (~1.5 × 10^4 colony forming units). After incubation for 48 h at 30 °C with constant agitation (200 rpm), the OD600 nm of each well was measured using a Synergy 2 multi-mode plate reader (BioTek Instruments, Winooski, VT, USA). The experiment was repeated three times (a total of nine measurements for the response of each strain to each drug). GraphPad Prism 5.0 software was used for statistical analysis, using a one-way analysis of variance with a Bonferroni post-hoc test. The statistical significance of comparisons was accepted when p < 0.05.

ScLDM6×His I471T = target: T1, ScLDM6×His I471T (Saccharomyces cerevisiae, UniProt P10614, I471T); assay: Type II azole binding to affinity purified ScLDM6×His I471T; settings: for ΔAmax: type II binding
T1 construct: structurally aligned mutations in recombinant hexahistidine-tagged full-length Saccharomyces cerevisiae LDM6×His (ScLDM6×His); 6×His (hexahistidine) (C); made in house; host or cells: Saccharomyces cerevisiae strain AD3Δ ScErg11 I471T (overexpression from the PDR5 locus, native ERG11 disrupted)
T1 sequence (P10614 whole entry I471T): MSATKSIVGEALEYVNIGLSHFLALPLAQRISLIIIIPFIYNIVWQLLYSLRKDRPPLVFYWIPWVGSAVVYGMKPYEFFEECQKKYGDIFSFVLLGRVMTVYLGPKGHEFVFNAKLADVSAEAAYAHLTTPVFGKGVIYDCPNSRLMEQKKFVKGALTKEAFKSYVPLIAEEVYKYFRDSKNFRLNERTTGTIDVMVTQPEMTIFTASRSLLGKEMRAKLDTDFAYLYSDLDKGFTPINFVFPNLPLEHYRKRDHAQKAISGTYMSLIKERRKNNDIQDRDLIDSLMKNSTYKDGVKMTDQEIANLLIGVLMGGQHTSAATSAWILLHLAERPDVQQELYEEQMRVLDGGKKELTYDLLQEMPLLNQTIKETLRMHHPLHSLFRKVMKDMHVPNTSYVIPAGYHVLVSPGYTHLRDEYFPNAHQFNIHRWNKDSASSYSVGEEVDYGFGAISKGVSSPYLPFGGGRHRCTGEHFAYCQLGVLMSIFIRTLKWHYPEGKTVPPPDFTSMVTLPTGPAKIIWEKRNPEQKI
Method: Protein purification was carried out using established methods. In brief, a 12 L culture for each control and test strain was grown overnight in 1 L volumes of YPD medium (1% [w/v] yeast extract [BD Difco], 2% [w/v] peptone [BD Difco], and 2% [w/v] D-glucose) in baffled 3 L flasks at 30 °C, with constant agitation (140 rpm). Cells harvested by centrifugation were broken by bead-beating and crude membrane fractions obtained by differential centrifugation, as previously described. The protein concentration of the crude membranes was estimated using the Lowry assay, with bovine serum albumin (Thermo Fisher) used as the protein standard. The crude membranes (1 g at 2.5 mg/mL) were detergent-solubilized using 10× critical micelle concentration (CMC) n-decyl-β-D-maltoside (DM) (Anatrace, Maumee, OH, USA) in buffer containing 10% (w/v) glycerol, 250 mM NaCl, 20 mM Tris pH 7.5, 0.5 mM phenylmethanesulfonyl fluoride (PMSF), and 1 EDTA-free protease inhibitor pill (Roche, Basel, Switzerland) per 300 mL. When the protein was to be used to assess in vitro binding affinity for the test azoles, detergent solubilized ScLDM6×His recovered after centrifugation was affinity purified using a nickel-nitrilotriacetic acid (Ni-NTA)-agarose matrix (Qiagen). The bound ScLDM6×His was eluted from the matrix using an affinity purification buffer containing 50 mM L-histidine. The L-histidine was removed by washing the enzyme through centrifugal filtration, using a 50 kDa molecular-weight cut-off Amicon Ultra-4 filter (Sigma, Auckland, New Zealand).
The concentration of functional ScLDM6×His purified by the nickel affinity method was quantitated using the standard carbon monoxide (CO) binding method. Type II drug binding assays that measure absorbance changes due to ligand interactions with ScLDM6×His were performed for VCZ and ITC, using an established protocol. The peak429nm-trough410nm difference spectra plotted against azole concentration were used to generate drug binding curves. All calculations were performed using GraphPad Prism 5 Software.

[2] = system: S. cerevisiae strain AD3Δ ScErg11 I471T expressing ScLDM6×His I471T; assay: Broth microdilution drug susceptibility assay (MIC80), strain AD3Δ ScErg11 I471T; assay type: cell-based, Saccharomyces cerevisiae; settings: for MIC80: Saccharomyces cerevisiae, 48 h, 30 °C, pH 6.8, mean (± SEM), n = 3; for MIC80 / MIC80/Relative Amount of ScLDM6×His / fold-resistance based on the relative amount of recombinant enzyme compared with strain AD3Δ: strain I471T; for increased susceptibility compared with AD3Δ: strain AD3Δ ScErg11 I471T, not corrected for expression; for MIC80/Relative Amount of ScLDM6×His / fold-resistance based on the relative amount of recombinant enzyme compared with strain AD3Δ: relative expression 0.51
Method: as §1, §2

[3] = system: C. albicans Darlington strain; assay: Agarose disk diffusion assay, Darlington strain; assay type: cell-based, Candida albicans; settings: for effect of Mdr1 inhibitor MCC1189 on azole susceptibility: MCC1189 at 6 µM in the assay medium; for effect of Cdr1p inhibitor RC21v3 on azole susceptibility: RC21v3 at 6 µM in the assay medium; for agarose diffusion susceptibility: no efflux pump inhibitor
Method: Agarose diffusion assays were carried out as described previously using the Darlington strain of C. albicans (Pfizer Ltd., Sandwich, UK) and the control C. albicans database strain SC5314, which is not resistant to azoles. The Cdr1p-specific inhibitor RC21v3 and the CaMdr1p-specific inhibitor MCC1189 (MicroCombiChem, Wiesbaden, Germany), included in the assay medium at 6 µM, were used to investigate the contribution of efflux pumps to azole resistance in the Darlington strain [49, 50, 51].

[4] = I471T mutant ScLDM6×His, supplement, 'in the 0.5 μM range'
[5] = I471T mutant enzyme, in the presence of 2 µM enzyme, read-out: IC50 from type II binding curves
[6] = ScLDM6×His I471T, 2 µM enzyme, (± SEM), μM, read-out: [Azole]0.5

Structure (SMILES): CCC(C)n1ncn(-c2ccc(N3CCN(c4ccc(OCC5COC(Cn6cncn6)(c6ccc(Cl)cc6Cl)O5)cc4)CC3)cc2)c1=O (centres unmarked) [ITC, itraconazole]
- MIC80 [1]: 0.112 µM
- susceptibility compared with AD3Δ cells ([1]; cells overexpressing ScLDM6×His Y140H, not corrected for expression): slightly increased susceptibility
- MIC80/Relative Amount of ScLDM6×His [1]: 151 nM
- fold-resistance based on the relative amount of recombinant enzyme compared with strain AD3Δ [1]: 1.1 ×
- Kd (ScLDM6×His I471T; [4]): ~500 nM
- IC50 (ScLDM6×His I471T; [5]): 0.6 to 0.8 µM
- IC50 (ScLDM6×His I471T; [6]): 0.79 µM
- ΔAmax (ScLDM6×His I471T; ScLDM6×His I471T, (± SEM)): 0.06 (0.001)
- Hill number (ScLDM6×His I471T; ScLDM6×His I471T, (± SEM)): 1.55 (0.19)
- Kd (ScLDM6×His I471T; ScLDM6×His I471T, (± SEM)): 700 nM
- MIC80 [2]: 0.102 µM
- increased susceptibility compared with AD3Δ [2]: 1.4 fold
- MIC80/Relative Amount of ScLDM6×His [2]: 200 nM
- fold-resistance based on the relative amount of recombinant enzyme compared with strain AD3Δ [2]: 1.4 ×
- effect of Mdr1 inhibitor MCC1189 on azole susceptibility [3]: no effect on susceptibility
- effect of Cdr1p inhibitor RC21v3 on azole susceptibility [3]: increased susceptibility
- agarose diffusion susceptibility [3]: resistant

Structure (SMILES): C[C@@H](c1ncncc1F)[C@](O)(Cn1cncn1)c1ccc(F)cc1F [VCZ, voriconazole]
- MIC80 [1]: 0.164 µM
- resistance conferred, relative amount of recombinant ScLDM6×His taken into account ([1]; ScLDM6×His Y140H vs AD3Δ): 2.4 fold
- MIC80 higher than strain AD3Δ ScErg11 ([1]; strain AD3Δ ScErg11 Y140H vs AD3Δ, not corrected for expression, p < 0.001): ~ 2 fold
- MIC80/Relative Amount of ScLDM6×His [1]: 221 nM
- fold-resistance based on the relative amount of recombinant enzyme compared with strain AD3Δ [1]: 2.4 ×
- Kd (ScLDM6×His I471T; [4]): ~500 nM
- IC50 (ScLDM6×His I471T; [5]): 0.6 to 0.8 µM
- IC50 (ScLDM6×His I471T; [6]): 0.75 µM
- ΔAmax (ScLDM6×His I471T; ScLDM6×His I471T, (± SEM)): 0.07 (0.003)
- Hill number (ScLDM6×His I471T; ScLDM6×His I471T, (± SEM)): 1.88 (0.23)
- Kd (ScLDM6×His I471T; ScLDM6×His I471T, (± SEM)): 580 nM
- MIC80 [2]: 0.074 µM
- increased susceptibility compared with AD3Δ [2]: 1.2 fold
- MIC80/Relative Amount of ScLDM6×His [2]: 145 nM
- fold-resistance based on the relative amount of recombinant enzyme compared with strain AD3Δ [2]: 1.6 ×
- effect of Mdr1 inhibitor MCC1189 on azole susceptibility [3]: did not alter the susceptibility
- effect of Cdr1p inhibitor RC21v3 on azole susceptibility [3]: did not alter the susceptibility
- agarose diffusion susceptibility [3]: resistant
